Values of other authors in US6620425B1, “Food supplements and methods comprising lipoic acid and creatine” (Muscletech Research and Development Inc., priority 1998, dated 2003).

Key:
[1] = insulin-sensitive individuals

## O=C(O)CCCCC1CCSS1 (stereo not drawn) [lipoic acid, 6,8-dithio octanoic acid]
In diabetics
  increase of the metabolic clearance rate of glucose: 50%
In type II diabetics
  the body's utilization of blood sugar: significantly increase

## chromium
[1]
  improvement of glucose tolerance: up to 50%
